The inhibition is the share of the control response that was lost under treatment. The term half-life denotes how long it takes for the measured level to halve. Low readings indicate rapid decline, high ones slow decline. The term Ki denotes a measure of affinity in units of concentration, obtained from inhibition or displacement.

Structures are written as SMILES. Calls of active or inactive are those of the source.

For data set [1], the system named is Rattus norvegicus. The experiment in a line: Antihyperalgesic activity in Sprague-Dawley rat model of Complete freund's adjuvant-induced arthritis assessed as pain threshold of ipsilateral paw at 13.4 mg/kg, po starting from day 14 after CFA injection and measured at 15 mins by paw pressure test (reference value: 40.1 +/- 0.7 g). Type of data set: functional.

The test system of data set [2] is Rattus norvegicus. Description: Antihyperalgesic activity in Sprague-Dawley rat model of Complete freund's adjuvant-induced arthritis assessed as pain threshold of ipsilateral paw at 13.4 mg/kg, po starting from day 14 after CFA injection and measured at 30 mins by paw pressure test (reference value: 40.1 +/- 0.7 g). Format: functional.
For data set [3], the system named is Rattus norvegicus. Description: Antihyperalgesic activity in Sprague-Dawley rat model of Complete freund's adjuvant-induced arthritis assessed as reduction in difference between weight burdened on contralateral and ipsilateral paw at 13.4 mg/kg, po starting from day 14 after CFA injection and measured at 15 mins incapacitance test. Type of data set: functional, organism-based.

Data set [4] is described as follows: Stability in PBS. Type of data set: physicochemical. Conditions: buffer.
In data set [5] the target is COX1 (Prostaglandin G/H synthase 1) (Homo sapiens, UniProt P23219). The experiment in a line: Inhibition of COX1 in human platelet rich plasma in assessed as inhibition of ADP-induced platelet aggregation at 10 uM incubated for 5 mins by turbidimetry based Born's method relative to control.
The subject of data set [6] is Rattus norvegicus. Description: Antihyperalgesic activity in Sprague-Dawley rat model of Complete freund's adjuvant-induced arthritis assessed as pain threshold of ipsilateral paw at 30 mg/kg, po starting from day 14 after CFA injection and measured at 15 mins by paw pressure test (reference value: 40.1 +/- 0.7 g). Type of data set: functional.
The test system of data set [7] is Rattus norvegicus. The experiment in a line: Antihyperalgesic activity in Sprague-Dawley rat model of Complete freund's adjuvant-induced arthritis assessed as pain threshold of ipsilateral paw at 30 mg/kg, po starting from day 14 after CFA injection and measured at 30 mins by paw pressure test (reference value: 40.1 +/- 0.7 g). Format: functional.
Data set [8] has as its system Rattus norvegicus. Description: Antihyperalgesic activity in Sprague-Dawley rat model of Complete freund's adjuvant-induced arthritis assessed as pain threshold of ipsilateral paw at 30 mg/kg, po starting from day 14 after CFA injection and measured at 45 mins by paw pressure test (reference value: 40.1 +/- 0.7 g). Type of data set: functional.
The subject of data set [9] is Rattus norvegicus. The experiment in a line: Antihyperalgesic activity in Sprague-Dawley rat model of Complete freund's adjuvant-induced arthritis assessed as increase in pain threshold of ipsilateral paw at 3 to 30 mg/kg, po starting from day 14 after CFA injection and measured at 0 to 60 mins by paw pressure test. Format: functional, organism-based.
Data set [10] deals with Rattus norvegicus. The experiment in a line: Antihyperalgesic activity in Sprague-Dawley rat model of Complete freund's adjuvant-induced arthritis assessed as effect on pain threshold of ipsilateral paw at 30 mg/kg, po starting from day 14 after CFA injection and measured at 60 mins by paw pressure test. Format: functional, organism-based.
Data set [11] concerns Rattus norvegicus. Description: Antihyperalgesic activity in Sprague-Dawley rat model of Complete freund's adjuvant-induced arthritis assessed as increase in pain threshold of ipsilateral paw at 10 mg/kg, po starting from day 14 after CFA injection and measured at 15 mins by paw pressure test. Format: functional, organism-based.
The subject of data set [12] is Rattus norvegicus. The experiment in a line: Antihyperalgesic activity in Sprague-Dawley rat model of Complete freund's adjuvant-induced arthritis assessed as increase in pain threshold of ipsilateral paw at 10 mg/kg, po starting from day 14 after CFA injection and measured at 30 mins by paw pressure test. Type of data set: functional.
The subject of data set [13] is Rattus norvegicus. Description: Antihyperalgesic activity in Sprague-Dawley rat model of Complete freund's adjuvant-induced arthritis assessed as increase in pain threshold of ipsilateral paw at 10 mg/kg, po starting from day 14 after CFA injection and measured at 45 mins by paw pressure test. Format: functional, organism-based.
For data set [14], the system named is Rattus norvegicus. Description: Antihyperalgesic activity in Sprague-Dawley rat model of Complete freund's adjuvant-induced arthritis assessed as pain threshold of ipsilateral paw at 3 mg/kg, po starting from day 14 after CFA injection and measured at 30 mins by paw pressure test (reference value: 40.1 +/- 0.7 g). Type of data set: functional.
Data set [15] deals with Rattus norvegicus. Description: Antihyperalgesic activity in Sprague-Dawley rat model of Complete freund's adjuvant-induced arthritis assessed as reduction in difference between weight burdened on contralateral and ipsilateral paw at 3 to 30 mg/kg, po starting from day 14 after CFA injection and measured at 0 to 60 mins incapacitance test. Type of data set: functional, organism-based.

Data set [16] concerns Rattus norvegicus. The experiment in a line: Antihyperalgesic activity in Sprague-Dawley rat model of Complete freund's adjuvant-induced arthritis assessed as reduction in difference between weight burdened on contralateral and ipsilateral paw at 30 mg/kg, po starting from day 14 after CFA injection and measured at 15 to 45 mins incapacitance test. Format: functional, organism-based.

Data set [17] concerns Rattus norvegicus. Description: Antihyperalgesic activity in Sprague-Dawley rat model of Complete freund's adjuvant-induced arthritis assessed as reduction in difference between weight burdened on contralateral and ipsilateral paw at 10 mg/kg, po starting from day 14 after CFA injection and measured at 15 to 30 mins incapacitance test. Type of data set: functional, organism-based.

The test system of data set [18] is Rattus norvegicus. The experiment in a line: Antihyperalgesic activity in Sprague-Dawley rat model of Complete freund's adjuvant-induced arthritis assessed as reduction in difference between weight burdened on contralateral and ipsilateral paw at 3 mg/kg, po starting from day 14 after CFA injection and measured at 30 mins incapacitance test. Format: functional, organism-based.

Data set [19] concerns Rattus norvegicus. The experiment in a line: Antihyperalgesic activity in Sprague-Dawley rat model of Complete freund's adjuvant-induced arthritis assessed as reduction in difference between weight burdened on contralateral and ipsilateral paw at 10 mg/kg, po starting from day 14 after CFA injection and measured at 30 mins incapacitance test. Type of data set: functional, organism-based.

Data set [20] can be described thus: Half life in human plasma by LC-MS/MS analysis. Format: ADME, cell-free.
Data set [21] in a line: Half life in Sprague-Dawley rat plasma by LC-MS/MS analysis. Type of data set: ADME, cell-free.
Data set [22] deals with Carbonic anhydrase 4 (Homo sapiens) (UniProt P22748).
Description: Inhibition of human CA4 pre-incubated for 6 hrs by stopped- flow CO2 hydrase assay method based Cheng-Prusoff equation analysis
Data set [23] has as its target Carbonic anhydrase 7 (Homo sapiens) (UniProt P43166).
Description: Inhibition of human CA7 pre-incubated for 6 hrs by stopped- flow CO2 hydrase assay method based Cheng-Prusoff equation analysis
Data set [24] addresses Carbonic anhydrase 1 (Homo sapiens) (UniProt P00915).
Description: Inhibition of human CA1 pre-incubated for 6 hrs by stopped- flow CO2 hydrase assay method based Cheng-Prusoff equation analysis
Data set [25] concerns the target Carbonic anhydrase 2 (Homo sapiens) (UniProt P00918).
Description: Inhibition of human CA2 pre-incubated for 6 hrs by stopped- flow CO2 hydrase assay method based Cheng-Prusoff equation analysis
For data set [26], the target named is Carbonic anhydrase 9 (Homo sapiens) (UniProt Q16790).
Description: Inhibition of human CA9 pre-incubated for 6 hrs by stopped- flow CO2 hydrase assay method based Cheng-Prusoff equation analysis
In data set [27] the target is Carbonic anhydrase 12 (Homo sapiens) (UniProt O43570).
Description: Inhibition of human CA12 pre-incubated for 6 hrs by stopped- flow CO2 hydrase assay method based Cheng-Prusoff equation analysis
In data set [28] the test system is Rattus norvegicus. The experiment in a line: Antihyperalgesic activity in Sprague-Dawley rat model of Complete freund's adjuvant-induced arthritis assessed as increase in pain threshold of ipsilateral paw at 30 mg/kg, po starting from day 14 after CFA injection and measured at 0 to 60 mins by paw pressure test. Format: functional, organism-based.
Data set [29] can be described thus: Solubility of the compound. Type of data set: physicochemical.
For data set [30], the system named is Rattus norvegicus. Description: Antihyperalgesic activity in Sprague-Dawley rat model of Complete freund's adjuvant-induced arthritis assessed as reduction in difference between weight burdened on contralateral and ipsilateral paw at 30 mg/kg, po starting from day 14 after CFA injection and measured at 30 mins incapacitance test. Format: functional, organism-based.

Chain of Carbonic anhydrase 4 (Homo sapiens) (P22748 whole entry): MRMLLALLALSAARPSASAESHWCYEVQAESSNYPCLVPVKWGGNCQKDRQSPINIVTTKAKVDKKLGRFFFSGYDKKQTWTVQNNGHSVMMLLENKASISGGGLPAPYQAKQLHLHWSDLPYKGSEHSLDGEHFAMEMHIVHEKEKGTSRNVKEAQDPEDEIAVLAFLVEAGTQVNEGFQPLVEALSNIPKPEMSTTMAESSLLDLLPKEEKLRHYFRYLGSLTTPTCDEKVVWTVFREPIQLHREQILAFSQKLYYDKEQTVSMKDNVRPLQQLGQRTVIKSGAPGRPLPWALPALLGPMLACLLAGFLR
Chain of Carbonic anhydrase 1 (Homo sapiens) (P00915 2-261 limits assumed): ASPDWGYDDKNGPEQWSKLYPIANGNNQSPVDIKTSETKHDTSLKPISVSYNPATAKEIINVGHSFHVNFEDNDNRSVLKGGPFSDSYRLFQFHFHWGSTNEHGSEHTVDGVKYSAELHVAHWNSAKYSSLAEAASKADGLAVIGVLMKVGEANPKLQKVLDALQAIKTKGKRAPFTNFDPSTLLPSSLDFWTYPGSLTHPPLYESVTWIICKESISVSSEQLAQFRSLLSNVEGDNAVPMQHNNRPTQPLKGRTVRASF
Chain of Carbonic anhydrase 7 (Homo sapiens) (P43166 whole entry): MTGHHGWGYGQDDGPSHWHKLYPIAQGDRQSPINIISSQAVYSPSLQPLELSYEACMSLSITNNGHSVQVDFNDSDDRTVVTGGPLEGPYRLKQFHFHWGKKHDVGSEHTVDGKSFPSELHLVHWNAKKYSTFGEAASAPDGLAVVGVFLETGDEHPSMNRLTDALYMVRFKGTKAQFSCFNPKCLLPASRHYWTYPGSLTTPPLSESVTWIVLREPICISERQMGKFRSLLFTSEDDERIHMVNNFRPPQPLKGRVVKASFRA
Chain of Carbonic anhydrase 12 (Homo sapiens) (O43570 whole entry): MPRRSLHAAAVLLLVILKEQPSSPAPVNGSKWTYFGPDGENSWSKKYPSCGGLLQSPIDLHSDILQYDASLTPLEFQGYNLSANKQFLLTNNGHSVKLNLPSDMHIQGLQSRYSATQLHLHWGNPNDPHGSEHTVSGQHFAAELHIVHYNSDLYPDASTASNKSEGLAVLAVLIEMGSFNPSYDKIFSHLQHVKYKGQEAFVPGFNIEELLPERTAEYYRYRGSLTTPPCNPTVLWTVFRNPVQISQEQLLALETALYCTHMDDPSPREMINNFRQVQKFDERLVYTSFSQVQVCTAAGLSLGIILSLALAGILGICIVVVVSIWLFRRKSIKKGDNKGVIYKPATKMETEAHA
Chain of COX1 (Prostaglandin G/H synthase 1) (P23219 whole entry): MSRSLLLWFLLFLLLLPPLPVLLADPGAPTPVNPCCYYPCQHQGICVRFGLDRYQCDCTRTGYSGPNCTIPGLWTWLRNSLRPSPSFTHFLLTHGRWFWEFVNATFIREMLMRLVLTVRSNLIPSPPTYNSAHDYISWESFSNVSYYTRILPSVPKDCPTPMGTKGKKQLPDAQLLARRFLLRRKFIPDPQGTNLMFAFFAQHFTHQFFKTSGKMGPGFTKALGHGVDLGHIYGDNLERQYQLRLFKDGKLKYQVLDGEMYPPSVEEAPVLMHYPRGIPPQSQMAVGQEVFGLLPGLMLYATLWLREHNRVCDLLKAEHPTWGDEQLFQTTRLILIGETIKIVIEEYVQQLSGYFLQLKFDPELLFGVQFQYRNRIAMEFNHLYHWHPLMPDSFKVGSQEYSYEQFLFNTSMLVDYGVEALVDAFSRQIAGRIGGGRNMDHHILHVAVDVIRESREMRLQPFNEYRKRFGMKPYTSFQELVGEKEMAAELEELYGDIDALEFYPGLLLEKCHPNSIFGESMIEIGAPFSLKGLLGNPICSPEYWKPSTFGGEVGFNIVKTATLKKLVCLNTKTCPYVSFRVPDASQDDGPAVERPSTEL

In the case of `O=c1ccc2cc(OCCO)ccc2o1`, the Activity with Rattus norvegicus [1] is 51.7 g; in the data set on Rattus norvegicus [2] it was 18.4 g. Also, the outcome in the data set on Rattus norvegicus [3] was Active.

As to `CC(C(=O)OCCOc1ccc2oc(=O)ccc2c1)c1cccc(C(=O)c2ccccc2)c1` (racemic), the Stability entry in data set [4] is reported as “Stable”. Besides, the inhibition at 5 min, 10 µM in [5] lay in the range of 5 to 30%. Besides, the Activity result with Rattus norvegicus [6] is “<=53.8 g”; in the data set with Rattus norvegicus [7] it was “<=64.4 g”; with Rattus norvegicus [8], “<=50 g”; with Rattus norvegicus [9] it was “Dose-dependent effect”; in the data set with Rattus norvegicus [12], 100%; with Rattus norvegicus [14], 49.4 g. Also, the Activity result in the data set with Rattus norvegicus [15] was “Dose-dependent effect”. Also, the outcome in the data set with Rattus norvegicus [10] and in the data set on Rattus norvegicus [13] was inactive. Besides, the result in the data set with Rattus norvegicus [11], in the data set on Rattus norvegicus [16], in the data set on Rattus norvegicus [17], in the data set with Rattus norvegicus [18] and with Rattus norvegicus [19] was Active. Besides, the half-life is 31 min in data set [20] and 4.7 min in data set [21]. Further, the Ki in [22] is 2.3 nM; in [23], greater than 10000 nM; in [24] it was greater than 10000 nM; in [25], greater than 10000 nM; in data set [26], 36.9 nM; in data set [27], 83.1 nM.

On to `CC(C(=O)OCCOc1ccc2ccc(=O)oc2c1)c1cccc(C(=O)c2ccccc2)c1` (racemic), for which the Stability result in data set [4] is on record as “Stable”. Further, in [5], the inhibition at 5 min, 10 µM lay in the range of 5 to 30%. In the data set with Rattus norvegicus [28], the result was inactive. In addition, the solubility result in data set [29] is on record as “Insoluble”. Moreover, the result in the data set on Rattus norvegicus [30] was Active. The half-life in data set [20] worked out at 12 min; in [21], 2.1 min. The Ki in [22] was 6.7 nM; in [23] it was greater than 10000 nM; in data set [24] it was greater than 10000 nM; in data set [25], greater than 10000 nM; in data set [26] it was 35.4 nM; in [27] it was 55.4 nM.

The record behind these values is ChEMBL document CHEMBL4402543, “Bioisosteric Development of Multitarget Nonsteroidal Anti-Inflammatory Drug-Carbonic Anhydrases Inhibitor Hybrids for the Management of Rheumatoid Arthritis” (J Med Chem, 2020).
